Data reported in paper PMC7730205, “Different Sensitivity of Control and MICU1- and MICU2-Ablated Trypanosoma cruzi Mitochondrial Calcium Uniporter Complex to Ruthenium-Based Inhibitors” (International Journal of Molecular Sciences, 2020).

Assays:
[1] = biological target: T. cruzi mitochondrial Ca2+ uniporter complex, TcMICU1-KO cells (Trypanosoma cruzi, UniProt Q4DHJ5+Q4DL37+Q4DYG3); experiment: Ca2+ uptake by digitonin-permeabilized TcMICU1-KO epimastigotes (calcium green-5N); type: cell-based; conditions: ~30 µM Ca2+, 5 mM succinate, initial rate, read-out: IC50, inhibition of mitochondrial Ca2+ uptake
Source text: (§1) We first tested the effect of different concentrations of inhibitors on Ca^2+ uptake, as measured by the change in fluorescence of calcium green 5-N, by digitonin-permeabilized control and TcMICU1-KO and TcMICU2-KO epimastigotes. These KO cells were obtained by the CRISPR/Cas9 method in previous work, and we used cells transfected with a scrambled sgRNA as control.
(§2) Figure 2 Inhibition of mitochondrial Ca^2+ uptake by ruthenium-based compounds. Representative traces of Ca^2+ uptake by digitonin-permeabilized epimastigotes in control (a), TcMICU1-KO (b), and TcMICU2-KO (c) epimastigotes in the presence of different Ru360 concentrations. C, control cells; TcMICU1-KO cells; and TcMICU2-KO cells. The reaction was started after adding 50 μM digitonin (Dig) in the presence of ~30 μM CaCl2, 5 mM succinate, and 0.5 μM calcium green-5N, in the presence or absence of Ru360. Where indicated, 4 μM FCCP was added. (d–f) Dose–response inhibition of the initial rate of mitochondrial Ca^2+ uptake in control (C), TcMICU1-KO (1-KO), and TcMICU2-KO (2-KO) cells treated with RuRed (d), Ru360 (e) or Ru265 (f).
(§3) When dose–response effects were measured in TcMICU1-KO and TcMICU2-KO cells we noticed that these cells were, in general, more sensitive to the inhibitors.
(§4) Cells were collected by centrifugation at 1000× g for 7 min and washed twice with buffer A with glucose (BAG: 116 mM NaCl, 5.4 mM KCl, 0.8 mM MgSO4, 5.5 mM D-glucose, and 50 mM HEPES, pH 7.0). […] Mitochondrial Ca^2+ uptake was initiated by the addition of ~30 μM of free calcium, which was calculated using the software Maxchelator Calculator v1.2 (https://somapp.ucdmc.ucdavis.edu/pharmacology/bers/maxchelator/CaEGTA-NIST.htm). […] Fluorescence changes were monitored in an F-7000 fluorescence spectrophotometer (Hitachi, Dallas, TX, USA) with excitation at 506 nm and emission at 532 nm. […] Kd for Ca^2+ indicator probes in our conditions was determined, according to Chweih et al.. Uptake rate inhibitions were calculated as the first derivative of the absolute values of the slope by using the SLOPE Excel function for 200 points (300 to 500 s). […]

[2] = biological target: T. cruzi mitochondrial Ca2+ uniporter complex (MCUC), control cells (Trypanosoma cruzi, UniProt Q4DHJ5+Q4DL37+Q4DYG3); experiment: Ca2+ uptake by digitonin-permeabilized control epimastigotes (calcium green-5N); type: cell-based; conditions: control (scrambled sgRNA) epimastigotes, ~30 µM Ca2+, 5 mM succinate, initial rate, read-out: IC50, inhibition of mitochondrial Ca2+ uptake
Source text: as §1
As is shown in Figure 2a, extramitochondrial Ca^2+ was sequestered in the mitochondria of control cells and released by the uncoupler FCCP.
as §2, §4

[3] = biological target: T. cruzi mitochondrial Ca2+ uniporter complex, TcMICU2-KO cells (Trypanosoma cruzi, UniProt Q4DHJ5+Q4DL37+Q4DYG3); experiment: Ca2+ uptake by digitonin-permeabilized TcMICU2-KO epimastigotes (calcium green-5N); type: cell-based; conditions: ~30 µM Ca2+, 5 mM succinate, initial rate, read-out: IC50, inhibition of mitochondrial Ca2+ uptake
Source text: as §1, §2, §3, §4

mammalian mitochondria = conditions: cited from earlier work
[4] = tested on: T. cruzi epimastigotes (control, TcMICU1-KO, TcMICU2-KO); experiment: Mitochondrial membrane potential of digitonin-permeabilized epimastigotes (safranine O); type: cell-based, Trypanosoma cruzi; conditions: TcMICU1-KO or TcMICU2-KO cells, succinate
Source text: To determine whether the defect in mitochondrial Ca^2+ uptake in the presence of inhibitors was not secondary to mitochondrial membrane depolarization, we measured the mitochondrial membrane potential (Δψm) of digitonin-permeabilized epimastigotes using safranine O in the presence of succinate as mitochondrial substrate.
Figure 3 Effect of inhibitors on the mitochondrial membrane potential of epimastigotes. Changes in mitochondrial membrane potential (Δψm) of digitonin-permeabilized epimastigotes as detected by changes in safranine O fluorescence in control (a), TcMICU1-KO (b), and TcMICU2-KO (c) epimastigotes in the absence or presence of inhibitors. Cells (5 × 10^7) were added to the reaction buffer (2 mL) containing 0.2% BSA, 5 mM succinate, 50 μM EGTA and 5 μM safranine O. The reaction was started with 50 μM digitonin (DIG) in the presence or absence of the inhibitor, and 250 μM ADP, 1.5 μM carboxyatractyloside (CAT), 50 μM CaCl2 (Ca^2+), 200 μM EGTA, and 4 μM FCCP were added when indicated. A decrease in fluorescence after permeabilization with digitonin indicated the accumulation of the dye in energized mitochondria. The addition of ADP produced a small dissipation of membrane potential, indicating ADP phosphorylation. Δψm returned to its initial level after the addition of the adenine nucleotide translocator inhibitor CAT. The addition of FCCP collapsed the membrane potential. (d) Changes in safranine O fluorescence after digitonin addition (between 30 and 60 s) in control (C), TcMICU1-KO and TcMICU2-KO epimastigotes. […] Changes in safranine O fluorescence in control (C) (e), TcMICU1-KO (1-KO) (f), and TcMICU2-KO (2-KO) (g) epimastigotes after addition of ADP from three experiments like that shown in panels (a–c).
Estimation of mitochondrial membrane potential in situ was done spectrofluorometrically using the indicator dye safranine O, as described previously. […] Fluorescence changes were monitored using the Hitachi F-7000 spectrofluorometer (excitation of 495 nm and emission of 586 nm).

T. cruzi trypomastigotes [5] = experiment: In vitro infection assay of Vero cells by trypomastigotes; type: cell-based, Trypanosoma cruzi; conditions: 30 min preincubation with 1 µM antimycin A; 4 h on Vero cells
Protocol: (§5) We analyzed the growth rate of epimastigotes in LIT medium at different Ru265 concentrations (1 µM, 5 µM, and 10 µM). […] The presence of metabolic inhibitors affects attachment and invasion of T. cruzi trypomastigotes to mammalian cells since these are an active process which depends on the expenditure of parasite energy. Preincubation of trypomastigotes for 30 min with antimycin A, which blocks electron transport from cytochrome b to c1, decreased the ability of trypomastigotes to attach to glutaraldehyde-fixed cells (Figure 4b) and invade intact host cells (Figure 4c).
(§6) Figure 4 Effect of Ru265 on Trypanosoma cruzi. (a) Effect of Ru265 on epimastigote growth. […] After 1 h of incubation at 37 °C, the cells were washed, and the number of attached trypomastigotes was counted. […] After 4 h of incubation at 37 °C, the cells were washed, and the number of intracellular parasites was counted. […] (f) Routine respiration (initial oxygen flux values), leak respiration after the addition of 0.5 µg/mL of oligomycin A, and electron transfer system (ETS) capacity after the sequential additions of FCCP (0.2 μM each) were measured for each condition. […] (g) Representative experiment showing mitochondrial Ca^2+ uptake by intact epimastigotes in relative fluorescence units (RFU). […] (h) Changes in fluorescence (before and after ionomycin addition) from three experiments like that shown in panel (g). […]

T. cruzi trypomastigotes [6] = experiment: Trypomastigote attachment assay to glutaraldehyde-fixed Vero cells; type: cell-based, Trypanosoma cruzi; conditions: 30 min preincubation with 1 µM antimycin A; 1 h at 37 °C on fixed Vero cells
Protocol: as §5, §6

T. cruzi mitochondrial Ca2+ uniporter complex, TcMICU2-KO cells, sequence (Q4DL37 entry or part of it): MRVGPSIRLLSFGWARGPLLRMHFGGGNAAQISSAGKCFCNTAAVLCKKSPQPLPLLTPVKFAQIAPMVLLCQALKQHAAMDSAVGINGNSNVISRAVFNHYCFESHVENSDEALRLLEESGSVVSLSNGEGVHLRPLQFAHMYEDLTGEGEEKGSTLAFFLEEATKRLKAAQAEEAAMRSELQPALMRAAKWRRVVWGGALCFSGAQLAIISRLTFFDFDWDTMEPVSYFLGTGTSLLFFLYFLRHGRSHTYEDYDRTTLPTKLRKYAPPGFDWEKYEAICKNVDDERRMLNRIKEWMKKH
T. cruzi mitochondrial Ca2+ uniporter complex, TcMICU2-KO cells, sequence (Q4DYG3 entry or part of it): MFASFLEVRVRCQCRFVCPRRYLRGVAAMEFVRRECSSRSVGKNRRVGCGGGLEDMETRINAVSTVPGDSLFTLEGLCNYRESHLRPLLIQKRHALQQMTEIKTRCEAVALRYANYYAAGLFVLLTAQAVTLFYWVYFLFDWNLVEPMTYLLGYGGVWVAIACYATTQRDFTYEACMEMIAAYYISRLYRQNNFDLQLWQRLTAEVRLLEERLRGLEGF
T. cruzi mitochondrial Ca2+ uniporter complex, TcMICU2-KO cells, sequence (Q4DHJ5 entry or part of it): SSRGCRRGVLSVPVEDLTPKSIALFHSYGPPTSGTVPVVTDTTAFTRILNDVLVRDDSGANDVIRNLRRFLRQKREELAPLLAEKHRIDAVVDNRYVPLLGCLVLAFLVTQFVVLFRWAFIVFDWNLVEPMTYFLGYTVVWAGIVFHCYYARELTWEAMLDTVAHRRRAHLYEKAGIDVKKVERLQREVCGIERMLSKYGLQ
T. cruzi mitochondrial Ca2+ uniporter complex (MCUC), control cells, sequence (Q4DL37 entry or part of it): as the sequence (Q4DL37 entry or part of it) above
T. cruzi mitochondrial Ca2+ uniporter complex (MCUC), control cells, sequence (Q4DHJ5 entry or part of it): as the sequence (Q4DHJ5 entry or part of it) above
T. cruzi mitochondrial Ca2+ uniporter complex (MCUC), control cells, sequence (Q4DYG3 entry or part of it): as the sequence (Q4DYG3 entry or part of it) above
T. cruzi mitochondrial Ca2+ uniporter complex (MCUC), control cells, sequence (Q4E667 entry or part of it, further chain): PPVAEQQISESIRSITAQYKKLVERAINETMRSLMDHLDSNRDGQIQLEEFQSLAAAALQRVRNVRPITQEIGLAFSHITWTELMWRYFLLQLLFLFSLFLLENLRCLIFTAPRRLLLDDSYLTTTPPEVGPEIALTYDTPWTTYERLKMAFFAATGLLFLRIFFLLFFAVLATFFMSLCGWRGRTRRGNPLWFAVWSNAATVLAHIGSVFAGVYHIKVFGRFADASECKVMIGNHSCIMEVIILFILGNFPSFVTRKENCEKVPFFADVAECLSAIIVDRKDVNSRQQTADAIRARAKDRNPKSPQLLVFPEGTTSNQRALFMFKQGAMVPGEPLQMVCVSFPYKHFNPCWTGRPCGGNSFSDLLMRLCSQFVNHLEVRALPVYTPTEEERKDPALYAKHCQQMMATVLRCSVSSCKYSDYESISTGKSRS
T. cruzi mitochondrial Ca2+ uniporter complex, TcMICU1-KO cells, sequence (Q4DHJ5 entry or part of it): as the sequence (Q4DHJ5 entry or part of it) above
T. cruzi mitochondrial Ca2+ uniporter complex, TcMICU1-KO cells, sequence (Q4DL37 entry or part of it): as the sequence (Q4DL37 entry or part of it) above
T. cruzi mitochondrial Ca2+ uniporter complex, TcMICU1-KO cells, sequence (Q4DYG3 entry or part of it): as the sequence (Q4DYG3 entry or part of it) above

Compound | IC50 [1] [nM] | IC50 [2] [nM] | IC50 [3] [nM] | Effective concentration range in mammalian mitochondria (mammalian mitochondria) | Effect on mitochondrial membrane potential (Δψm) and response to ADP [4] | Ability of trypomastigotes to invade intact host cells (T. cruzi trypomastigotes [5]) | Ability of trypomastigotes to attach to glutaraldehyde-fixed cells (T. cruzi trypomastigotes [6])
N.N.N.N.N.N.N.N.[Cl][Ru+3].[NH]=[Ru][Cl] [Ru265] | 12.1 ± 2.3 | 26.3 ± 2 | 14.1 ± 1.3 | – | – | – | –
N.N.N.N.N.N.N.N.N.N.N.N.N.N.[Cl-].[Cl-].[Cl-].[Cl-].[Cl-].[Cl-].[O-2].[O-2].[Ru+3].[Ru+3].[Ru+4] [RuRed, ruthenium red] | 148 ± 21.7 | 117 ± 16.9 | 11.9 ± 1.4 | effective in the submicromolar range | did not significantly affect | – | –
CCCCCC[C@H]1C(=O)O[C@H](C)[C@H](NC(=O)c2cccc(NC=O)c2O)C(=O)O[C@@H](C)[C@@H]1OC(=O)CC(C)C [antimycin A] | – | – | – | – | – | decreased | decreased
Ru360 | 46.7 ± 2.7 | 186 ± 15.2 | 63.6 ± 6.9 | – | did not significantly affect | – | –
